Laboratory results taken from US10961278B2, “Vancomycin derivative, preparation method, pharmaceutical composition and use thereof” (SHANGHAI INSTITUTE OF MATERIA MEDICA, CHINESE ACADEMY OF …, priority 2016, dated 2021).
In brackets after ≈: the same amount, converted by molar mass. Entries after “also recorded” stand apart in the source; their conditions may differ. Read-outs that look alike come from different tables or passages of the source.

Key:
[1] = tested on: Staphylococcus aureus USA300 LAC strain (CA-MRSA); type: in vivo; settings: for in vivo antibacterial activity against methicillin-resistant Staphylococcus aureus, comparison with positive controls: BALB/c mice, 7 mg/kg i.p., 10 days
[2] = In vivo pharmacokinetic assay in mice; settings: for AUCINF_obs / AUClast / CL_obs / MRTINF_obs / T1/2 / VSS_obs: male CD-1 mice, intravenous single dose 5 mg/kg; for AUC(0-inf) / AUC(0-t) / MRT inf / half-life: male, CD-1, mouse, in vivo, iv, 5 mg/kg
[3] = tested on: vancomycin-middle resistant Staphylococcus aureus Mu50 strain; test: In vitro antibacterial activity assay (MIC, CLSI dilution method); type: cell-based
[4] = male, CD-1, mouse, in vivo, iv, 5 mg/kg
[5] = tested on: vancomycin-sensitive Staphylococcus aureus Newman strain; test: In vitro antibacterial activity assay (MIC, CLSI dilution method); type: cell-based; settings: Staphylococcus aureus, S. aureus Newman, 37° C., 16 h
in vivo = settings: male, CD-1, mouse, iv, 5 mg/kg
[6] = tested on: HL-7702 cells (human liver cells); test: Liver cytotoxicity assay (CCK8 cell viability); type: cell-based; settings: HL-7702 cells, 10, 50, 100 μM, 72 h
Procedure: (§1) Liver and kidney cell viability assays were performed using the Cell Activity Assay Kit CCK8 (Cell Counting Kit-8) method. HK-2 cells (human renal proximal tubular epithelial cells) and HL-7702 cells (human liver cells) in logarithmic growth phase were inoculated to a 96-well culture plate at a suitable density (about 5000 cells), at 100 μL per well. […] Three replicate wells were set for each concentration, and the physiological saline vehicle control well corresponding to each concentration and a well for cell-free zero-adjustment were set. After the treatment, 10 μL of CCK8 detection solution was added into each well, the incubation was performed at 37° C. for about 1.5 h. The optical density (OD value) at 450 nm was measured on a […] microplate reader. The OD value was converted to cell viability value according to the following equation: […] wherein, ODC represents the optical density obtained by different concentrations of the compounds to be tested, C represents the concentration of the compound, and ODC=0 represents the optical density obtained without addition of the compound to be tested.

[7] = tested on: HK-2 cells (human renal proximal tubular epithelial cells); test: Kidney cytotoxicity assay (CCK8 cell viability); type: cell-based; settings: HK-2 cells, 10, 50, 100 μM, 72 h
Procedure: as §1

[8] = Staphylococcus aureus; S. aureus Mu50, 37° C., 16 h; read-out: MIC Mu50
[9] = female BALB/c mice, USA300 LAC retro-orbital, single dose 7 mg/kg intraperitoneally 1 h after infection, after 10 days
[10] = Staphylococcus aureus, 16 h, read-out: MIC Mu50

CN[C@H](CC(C)C)C(=O)N[C@H]1C(=O)N[C@@H](CC(N)=O)C(=O)N[C@H]2C(=O)N[C@H]3C(=O)N[C@H](C(=O)N[C@H](C(=O)O)c4cc(O)cc(O)c4-c4cc3ccc4O)[C@H](O)c3ccc(c(Cl)c3)Oc3cc2cc(c3O[C@@H]2O[C@H](CO)[C@@H](O)[C@H](O)[C@H]2O[C@H]2C[C@](C)(N)[C@H](O)[C@H](C)O2)Oc2ccc(cc2Cl)[C@H]1O [Vanco., vancomycin]
survival rate ([1]; in vivo, ip, 7 mg/kg): 6.6%
AUCINF_obs [2]: 1271 ± 347 ng·h/mL
AUClast [2]: 1242 ± 335 ng·h/mL
CL_obs [2]: 68.7 ± 18 mL/min/kg
MRTINF_obs [2]: 0.790 ± 0.26 h
T1/2 [2]: 0.597 ± 0.208 h
MIC [3, 8]: 8 µg/mL (≈ 5.52 µM)
VSS_obs [4]: 3.076 ± 0.175 L/kg
MIC [5]: 2 µg/mL (≈ 1.38 µM)

CN[C@H](CC(C)C)C(=O)N[C@H]1C(=O)N[C@@H](CC(N)=O)C(=O)N[C@H]2C(=O)N[C@H]3C(=O)N[C@H](C(=O)N[C@H](C(=O)O)c4cc(O)c(CNCCCNC(=O)[C@H](O)[C@@H](O)[C@H](O)[C@H](O)CO)c(O)c4-c4cc3ccc4O)[C@H](O)c3ccc(c(Cl)c3)Oc3cc2cc(c3OC2O[C@H](CO)C(O)C(O)[C@H]2O[C@@H]2CC(C)[C@@H](O)C(C)(NCc3ccc(-c4ccc(C(F)(F)F)cc4)cc3)C2)Oc2ccc(cc2Cl)[C@H]1O (some centres unmarked) [Van016]
in vivo antibacterial activity against methicillin-resistant Staphylococcus aureus, comparison with positive controls [1]: better activity than vancomycin
survival rate [1, 9]: 60.0%
MIC ([3]; Staphylococcus aureus, 16 h, S. aureus Mu50, 37° C., read-out: MIC Mu50): 0.25 µg/mL (≈ 0.128 µM)
CL_obs [4]: 6.4 ± 1.39 mL/min/kg
VSS_obs [4]: 1.826 ± 0.334 L/kg
MIC ([5]; NEWMAN): ≤ 0.0625 µg/mL
AUC(0-inf) (in vivo): 13400 ± 12700 ng·h/mL
AUC(0-t) (in vivo): 10700 ± 2060 ng·h/mL
MRT inf (in vivo): 4.79 ± 0.24 h
half-life (in vivo): 3.72 ± 0.7 h

CN[C@H](CC(C)C)C(=O)N[C@H]1C(=O)N[C@@H](CC(N)=O)C(=O)N[C@H]2C(=O)N[C@@H]3C(=O)N[C@H](C(=O)N[C@H](C(=O)O)c4cc(O)c(CNC5C(O)OC(CO)[C@H](O)[C@@H]5O)c(O)c4-c4cc3ccc4O)[C@H](O)c3ccc(c(Cl)c3)Oc3cc2cc(c3O[C@@H]2O[C@H](CO)C(O)C(O)[C@H]2O[C@H]2CC(C)(NCc3ccc(-c4ccc(C(F)(F)F)cc4)cc3)[C@H](O)[C@H](C)O2)Oc2ccc(cc2Cl)[C@H]1O (some centres unmarked) [Van032]
in vivo antibacterial activity against methicillin-resistant Staphylococcus aureus, comparison with positive controls [1]: better activity than vancomycin
survival rate [1, 9]: 73.3%
CL_obs [2]: 3.45 ± 0.40 mL/min/kg
VSS_obs [2]: 0.9 ± 0.18 L/kg
AUC(0-inf) [2]: 24300 ± 2800 ng·h/mL
AUC(0-t) [2]: 20100 ± 1710 ng·h/mL
MRT inf [2]: 4.41 ± 1.23 h
half-life [2]: 3.45 ± 1.26 h
MIC [3, 10]: ≤ 0.0625 µg/mL
MIC [5]: ≤ 0.0625 µg/mL

CN[C@H](CC(C)C)C(=O)N[C@H]1C(=O)N[C@@H](CC(N)=O)C(=O)N[C@H]2C(=O)N[C@H]3C(=O)N[C@H](C(=O)N[C@H](C(=O)O)c4cc(O)c(CNCCO[C@@H]5OC(CO)[C@H](O)C(O)C5O)c(O)c4-c4cc3ccc4O)[C@H](O)c3ccc(c(Cl)c3)Oc3cc2cc(c3OC2O[C@H](CO)C(O)C(O)[C@H]2O[C@@H]2CC(C)[C@@H](O)C(C)(NCc3ccc(-c4ccc(C(F)(F)F)cc4)cc3)C2)Oc2ccc(cc2Cl)[C@H]1O (some centres unmarked) [Van037]
in vivo antibacterial activity against methicillin-resistant Staphylococcus aureus, comparison with positive controls ([1]; 7 mg/kg): better activity than vancomycin; also recorded: comparable activities with telavancin
survival rate [1, 9]: 86.6%
toxicity in liver cells [6]: less toxicity in liver cells than vancomycin and telavancin
toxicity in kidney cells [7]: toxicity less than vancomycin and comparable to telavancin
CL_obs [2]: 4.42 ± 1.42 mL/min/kg
VSS_obs [2]: 1.077 ± 0.449 L/kg
AUC(0-inf) [2]: 20000 ± 5490 ng·h/mL
AUC(0-t) [2]: 16600 ± 4960 ng·h/mL
MRT inf [2]: 4.21 ± 2.08 h
half-life [2]: 2.94 ± 1.39 h
MIC [3, 10]: 0.25 µg/mL (≈ 0.13 µM)
MIC [5]: ≤ 0.0625 µg/mL

CCCCCCCCCCNCCN[C@@]1(C)C[C@H](O[C@H]2[C@H](Oc3c4cc5cc3Oc3ccc(cc3Cl)[C@@H](O)[C@@H](NC(=O)[C@@H](CC(C)C)NC)C(=O)N[C@@H](CC(N)=O)C(=O)N[C@H]5C(=O)N[C@H]3C(=O)N[C@H](C(=O)N[C@H](C(=O)O)c5cc(O)c(CNCP(=O)(O)O)c(O)c5-c5cc3ccc5O)[C@H](O)c3ccc(c(Cl)c3)O4)O[C@H](CO)[C@@H](O)[C@@H]2O)O[C@@H](C)[C@H]1O [Tela., telavancin, reference compound]
survival rate ([1]; in vivo, ip, 7 mg/kg): 93.3%
AUCINF_obs [2]: 17304 ± 5745 ng·h/mL
AUClast [2]: 17143 ± 5611 ng·h/mL
CL_obs [2]: 5.1 ± 1.5 mL/min/kg
MRTINF_obs [2]: 1.71 ± 0.13 h
T1/2 [2]: 1.13 ± 0.13 h
MIC [3, 8]: 1 µg/mL (≈ 0.57 µM)
MIC [5]: < 0.0625 µg/mL

CN[C@H](CC(C)C)C(=O)N[C@H]1C(=O)N[C@@H](CC(N)=O)C(=O)N[C@H]2C(=O)N[C@@H]3C(=O)N[C@H](C(=O)N[C@H](C(=O)O)c4cc(O)c(CNC5C(O)OC(CO)[C@H](O)[C@@H]5O)c(O)c4-c4cc3ccc4O)[C@H](O)c3ccc(c(Cl)c3)Oc3cc2cc(c3O[C@@H]2O[C@H](CO)C(O)C(O)[C@H]2O[C@H]2CC(C)(NCc3ccc(-c4ccc(Cl)cc4)cc3)[C@H](O)[C@H](C)O2)Oc2ccc(cc2Cl)[C@H]1O (some centres unmarked) [Van038]
in vivo antibacterial activity against methicillin-resistant Staphylococcus aureus, comparison with positive controls ([1]; 7 mg/kg): better activity than vancomycin; also recorded: comparable activities with telavancin
survival rate [1, 9]: 93.3%
CL_obs [2]: 7.0 ± 1.38 mL/min/kg
VSS_obs [2]: 1.754 ± 0.38 L/kg
AUC(0-inf) [2]: 12200 ± 2490 ng·h/mL
AUC(0-t) [2]: 12100 ± 2480 ng·h/mL
MRT inf [2]: 4.18 ± 0.34 h
half-life [2]: 3.81 ± 0.31 h
MIC [3, 10]: 0.125 µg/mL (≈ 0.0679 µM)
MIC [5]: ≤ 0.0625 µg/mL
